From US20240247021A1, “CRYSTAL FORMS OF KUDING SAPONIN A COMPOUND, PHARMACEUTICAL COMPOSITION AND USE THEREOF” (SHANGHAI KE PHARMACEUTICAL CO., LTD, priority 2021, published 2024) come the findings set out here.

The nature of series [1]: Hygroscopicity test by dynamic vapor sorption (DVS). Type of series: physicochemical. The following applies: for weight change when the relative humidity is in the range of 0%-80% / hygroscopicity: DVS graph (FIGS. 1d, 2d, 3d); for hygroscopicity: judgment criteria of Table 7; for Increase in mass (relative humidity: 0%-80%) / Degree of hygroscopicity: DVS, 25° C., relative humidity 0%-80%; for Degree of hygroscopicity: criteria of Table 12. As for the experimental part: Dynamic vapor sorption (DVS) is a test method for analyzing the moisture sorption performance of a sample and recording the moisture sorption isotherm, and it determines the stability of a compound by identifying its sorption capacity for moisture. Methods for performing dynamic vapor sorption analysis on the crystals are well known to those skilled in the art. In the present invention, the hygroscopicity of the crystal forms A, C, and J of Kudinoside A is determined by using a dynamic vapor sorption instrument, and the specific measurement conditions are shown in Table 7.
About 10 mg of each of the crystal forms A, C, and J obtained in Examples 1-3 was tested for its hygroscopicity using a dynamic vapor sorption (DVS) instrument (test conditions: a temperature of 25° C. and a relative humidity of 0%-80%), and the hygroscopicity of each crystal form was judged using the criteria shown in Table 12 below. For the steps and the judgment criteria of the hygroscopicity test, reference is made to the General Requirement 9103-Guidelines for Hygroscopicity in Pharmacopoeia of the People's Republic of China 2020 (Volume IV).

A short description of series [2]: Thermogravimetric analysis (TGA). It is filed as physicochemical. The following applies: 10 K/min, nitrogen. From the text: Thermogravimetric analysis, or TGA for short, refers to a thermal analysis method for measuring the relationship of the mass of a sample to be detected with the change of temperature or time at a programmed temperature, and it is used to study information related to the quality of the sample, such as thermal stability, components of intermediate products possibly generated, etc. It is often used in combination with other thermal analysis methods for comprehensive thermal analysis. Methods for performing thermogravimetric analysis on the crystals are well known to those skilled in the art. In the present invention, the crystal forms A, C, and J of Kudinoside A are determined by using a thermogravimetric analyzer, and the specific measurement conditions are shown in Table 6.

The format of series [3] is physicochemical. To be noted: uncovered, in the dark, 10 days; long-term (25±2° C., RH 65%±10%) and accelerated (40±2° C., RH 75%±10%) conditions. As for the experimental part:
25 mg of the crystal form J was spread in a culture dish and left to stand, with the culture dish uncovered, in the dark for 10 days under long-term conditions (temperature: 25±2° C.; relative humidity: 65%±10%) and acceleration conditions (temperature: 40±2° C.; relative humidity: 75%±10%), and then the crystal form J was subjected to X-ray powder diffraction assay and thermogravimetric analysis. The X-ray powder diffractometer used and parameters thereof are shown in Table 4; the thermogravimetric analyzer used and parameters thereof are shown in Table 6.

Series [4] can be described thus: Conditions under which the crystal forms exist stably. Type of series: physicochemical.
For series [5], the system named is asthma mouse models with obvious pulmonary inflammation. The series is described as follows: Anti-inflammatory effect in asthma mouse models (eosinophilic granulocytes in alveolar lavage fluid, flow cytometry). Type of series: in vivo, Balb/c mice. To be noted: for Proportion of eosinophilic granulocytes (EOs): white blood cells of alveolar lavage fluid, day 39, negative control group 17.05. As to the method:
Firstly, Kudinoside A solutions at different concentrations were prepared, and specific steps were as follows: • (1) Preparation of 15 mg/mL stock solution of the crystal form A of Kudinoside A: 0.50990 g of the crystal form A of Kudinoside A obtained in Example 1 was dissolved in 33.993 mL of propylene glycol under sonication to obtain about […] of 15 mg/mL stock solution of the crystal form A of Kudinoside A, which was stored at room temperature in the dark; • (2) Preparation of 1.5 mg/mL Kudinoside A solution: 2 mL of the 15 mg/mL stock solution of the crystal form A of Kudinoside A was measured out and diluted with 18 mL of 25% propylene glycol to obtain 20 mL of 1.5 mg/mL Kudinoside A solution, and the solution was freshly prepared before use. • (3) Preparation of 0.3 mg/mL Kudinoside A solution: 4 mL of the 1.5 mg/mL Kudinoside A solution was measured out and diluted with 16 mL of 32.5% propylene glycol to obtain 20 mL of 0.3 mg/mL Kudinoside A solution, and the solution was freshly prepared before use. • (4) Preparation of 0.06 mg/mL Kudinoside A solution: 3 mL of the 0.3 mg/mL Kudinoside A solution was measured out and diluted with 12 mL of 32.5% propylene glycol to obtain 15 mL of […] Kudinoside A solution, and the solution was freshly prepared before use.
Then, asthma mouse models with obvious pulmonary inflammation were constructed: 100 μL of 6 mg/mL chicken ovalbumin and 4 mg of aluminum hydroxide were injected intraperitoneally to Balb/c mice on day 1, 100 μL of 3.6 mg/mL chicken ovalbumin and 4 mg of aluminum hydroxide were injected on day 8, 100 μL of 1 mg/mL chicken ovalbumin and 4 mg of aluminum hydroxide were injected on day 15, and 6 mL of 2% chicken ovalbumin was administered by nebulization for exciting of 30 min every day from day 20 to day 23, thus constructing asthma mouse models with obvious pulmonary inflammation. For the mice in the blank control group, 100 μL of PBS was used instead of chicken ovalbumin.
Finally, the nebulization treatment was performed: from day 24, the Kudinoside A solutions at different concentrations (0.06 mg/mL, 0.3 mg/mL, and 1.5 mg/mL) were each administered by nebulization twice daily (30 min for each time, 12 mL in total) for treatment, and 6 mL of 2% chicken ovalbumin was administered by nebulization for exciting of 30 min 1 h after the nebulization treatment, and the administration and excitation were performed for 15 days according to this scheme; sampling was carried out 24 h after the last administration and excitation experiment, i.e., on day 39, and the Kudinoside A solution at the corresponding nebulization treatment concentration was administered twice (30 min for each time, 12 mL in total) for treatment before the sampling. The above was the scheme for the experimental groups of the nebulization treatment with Kudinoside A at different doses, and the mice in the negative control group were administered with 30% propylene glycol instead of Kudinoside A for nebulization.
Flow cytometry was adopted to detect proportion of eosinophilic granulocytes (EOs) in white blood cells of mouse alveolar lavage fluid samples. The blank group had 15 mice, the negative control group had 12 mice, and the high-, medium-, and low-concentration Kudinoside A experimental groups had 18 mice, 13 mice, and 14 mice, respectively.

The next series concerns bronchial smooth muscle. The series is described as follows: Relaxation effect on bronchial smooth muscle (bronchial ring tension). More on the design: species or system C57BL/6J mice. The following applies: for Average percentage of tension relaxation: bronchial rings pre-constricted, 20 minutes after adding. As for the experimental part:
Firstly, Kudinoside A solutions with different concentrations were prepared: 0.3253 g of the crystal form A of the Kudinoside A obtained in Example 1 was dissolved in 1 mL of dimethyl sulfoxide (DMSO) to prepare a stock solution of the crystal form A of Kudinoside A, and then the stock solution was diluted in sequence with DMSO into solutions of the crystal form A of Kudinoside A at concentrations of 1 μM, 3.2 μM, 10 μM, and 32 μM.
Then, bronchial rings were prepared: C57BL/6J mice aged 6 weeks were killed by breaking the neck, left and right bronchi were taken out and subjected to bronchia dissection under a stereomicroscope, and the obtained left and right bronchi were cut into bronchial rings with a length of about 2 mm.
Furthermore, the tension of the bronchial ring was balanced: the bronchial ring was fixed with two metal wires and suspended in a water bath at 37° C. containing 5 mL of balanced salt solution (Kreb solution), and a mixed gas containing 5% of carbon dioxide and 95% of oxygen was continuously introduced; then the tension of the bronchial ring was balanced using a tension transducer and re-balanced after pre-stimulation with 60 mM potassium chloride.
Finally, determination of the airway tension and drug administration were performed: the instrument was calibrated, and the detection system was zeroed; a tension value A was recorded when the tension of the mouse was stable; 5 μL of 10 mM […] was added to 5 mL of Kreb solution to make the final concentration to be 10 μM, and 5 μL of each of the solutions of the crystal form A of Kudinoside A at different concentrations (1 μM, 3.2 μM, 10 μM, and 32 μM) was added separately when the constriction tension of the bronchial ring reached the peak; the change of the bronchial tension was observed and recorded, and the percentage of the airway tension relaxation was calculated, as shown in Table 22. The average tension value 1 minute before adding the solution of Kudinoside A is recorded as B, the average tension value 20 minutes after adding Kudinoside A is recorded as C, and the percentage of airway tension relaxation is (B−C)/(B−A).

For `C[C@@H]1O[C@@H](O[C@H]2[C@H](O[C@H]3CC[C@]4(C)[C@H]5C[C@H](O)C6=C7[C@]8(CC[C@](C)(OC8=O)[C@@]7(C)O)CC[C@@]6(C)[C@]5(C)CC[C@H]4C3(C)C)OC[C@H](O)[C@@H]2O[C@@H]2O[C@H](CO)[C@@H](O)[C@H](O)[C@H]2O)[C@H](O)[C@H](O)[C@H]1O` [crystal form J, Kudinoside A], in series [1], the “weight change when the relative humidity is in the range of 0%-80%” value is listed as “about 4.7%”, the hygroscopicity result is “hygroscopic”, the “Increase in mass (relative humidity: 0%-80%)” value worked out at 4.7% and the Degree of hygroscopicity entry is given as “hygroscopic”. For the same molecule, the Degree of hygroscopicity result in series [1] (listed as J) is given as “Hygroscopic (The increase in mass is less than 15% but not less than 2%)”. In addition, the decomposition temperature entry in series [2] was “about 324 °C”. In series [3], the “characteristic peaks on the X-ray powder diffraction pattern (crystal form change)” value is “not changed” and the “weight loss condition (TGA)” value was “not changed”. The “conditions under which the crystal form exists stably” value in series [4] was “can exist stably as a dry powder at room temperature”.
Turning to `C[C@@H]1O[C@@H](O[C@H]2[C@H](O[C@H]3CC[C@]4(C)[C@H]5C[C@H](O)C6=C7[C@]8(CC[C@](C)(OC8=O)[C@@]7(C)O)CC[C@@]6(C)[C@]5(C)CC[C@H]4C3(C)C)OC[C@H](O)[C@@H]2O[C@@H]2O[C@H](CO)[C@@H](O)[C@H](O)[C@H]2O)[C@H](O)[C@H](O)[C@H]1O` [crystal form C, Kudinoside A], in series [1], the “weight change when the relative humidity is in the range of 0%-80%” value is “about 1.8%”, the hygroscopicity entry is given as “slightly hygroscopic”, the “Increase in mass (relative humidity: 0%-80%)” value was determined as 1.8% and the Degree of hygroscopicity entry was “slightly hygroscopicity”. The Degree of hygroscopicity entry in series [1] (listed as C) is recorded as “Slightly hygroscopic (The increase in mass is less than 2% but not less than 0.2%)”. In series [2], the decomposition temperature result is “about 315 °C”. For the same molecule, the “conditions under which the crystal form exists stably” value in series [4] is “can exist stably as a dry powder at room temperature”.
With “3β-12α-19α-trihydroxy-ursane-13(18)-ene-28,20β-lactone-3-O-[β-D-glucosyl-(1→3)-[α-L-rham nosyl-(1→2)]-α-L-arabinoside [Kudinoside A]”, the entries for the “Proportion of eosinophilic granulocytes (EOs)” value in series [5] (0.06 mg/mL solution by nebulization twice daily), in series [5] (0.3 mg/mL solution by nebulization twice daily) and in series [5] (1.5 mg/mL solution by nebulization twice daily) were 10.14, 9.56 and 10.81, respectively. The “anti-inflammatory effect (conclusion)” value in series [5] (asthma mouse models) is given as “certain anti-inflammatory effects”. Further, the “proportion of eosinophilic granulocytes compared with the negative control group” value in series [5] (each dose (0.06, 0.3, 1.5 mg/mL)) is “decreases”. Further, the “relaxation effect on bronchial smooth muscle” value with bronchial smooth muscle (1 μM) is “no relaxation effect”; with bronchial smooth muscle (3.2 μM, 10 μM, and 32 μM), “relaxed to a certain degree”. For the same molecule, the “Average percentage of tension relaxation” value in the series on bronchial smooth muscle (Concentration of Kudinoside A 1 μM) is reported as −3.57%; with bronchial smooth muscle (Concentration of Kudinoside A 3.2 μM), 21.40%; in the series with bronchial smooth muscle (Concentration of Kudinoside A 10 μM), 42.93%; in the series with bronchial smooth muscle (Concentration of Kudinoside A 32 μM), 50.09%.
